Measurements as given in patent publication US12544419B2, “Targeted amatoxin conjugate for the treatment of solid tumors” (Heidelberg Pharma Research GmbH, priority 2018, dated 2026).

Assays:
[1] = test system: Raji Luc cells (i.v. xenograft); assay: Intravenous Raji-Luc xenograft (liquid tumor), survival; assay type: in vivo, CB17 SCID mice; settings: conjugated to chiBCE19 D265C; i.v. injected Raji Luc cells; single i.v. dose
Description: (§1) Intravenous Nalm-6 xenograft model: Female CB17 SCID mice were inoculated with 2.5×10^6 Raji Burkitt's lymphoma cells per mouse into the tail vein. Animals were allocated to groups on day 0. On day 3 after tumor cell injection, the animals received a single intravenous dose of amanitin based anti-CD19 antibody drug conjugates (ADCs). Body weight was determined twice per week. Survival was monitored daily.
as §1, with “[…]” for “Nalm-6”, “5×10^6 Nalm-6 B Cell precursor leukemia” for “2.5×10^6 Raji Burkitt's lymphoma”
(§2) Survival rates were then investigated with tumor xenografts of Raji cells (with or without transfected luciferase) or Nalm-6 cells obtained by i.v. administration of the respective cells.
(§3) Raji is a cell line derived from Burkitt's lymphoma, Nalm-6 is a cell line derived from acute lymphoblastic leukemia (ALL). Results are shown in the Kaplan Meier curves of FIG. 6.
(§4) Survival experiments were carried out with i.v. injected Raji Luc (FIG. 6A) or NALM6 (FIG. 6B) cells.

[2] = test system: Jimt-1 breast cancer cells (s.c. xenograft); assay: Jimt-1 xenograft model, tumor volume; assay type: in vivo, NMRI nude mice; settings: conjugated to Trastuzumab D265C; JIMT xenografts; single intravenous dose
Description: (§5) Jimt-1 xenograft model: Female NMRI nude mice were inoculated with 5×10^6 Jimt-1 breast cancer cells per mouse subcutaneously in the right flank. At a mean tumor vol. of ˜120 mm^3, animals were allocated to groups on day 0. On the same day the animals received a single intravenous dose of amanitin based anti-Her2 antibody drug conjugates (ADCs) Tumor volume and body weight were determined twice per week.
(§6) Tumor growth was monitored by caliper measurement. Tumor size was calculated according to the equation: volume=W^2×L×0.5 (L=length and W=perpendicular width of the tumor, L>W).

[3] = Highest non-severely toxic dose, DIG (Digoxigenin antibody) conjugates, Cyno; settings: Digoxigenin antibody conjugate (no cross reaction with host targets); Cynomolgus monkey
[4] = test system: Raji cells; assay: CellTiter-Glo 2.0 cell viability assay, Raji; assay type: cell-based, human; settings: conjugated to antiCD19 antibody chiBCE19 D265C
Description: Cytotoxic activity of anti CD19 amatoxin conjugates on target positive cells was assessed by CellTiter-Glo 2.0 Luminescent Cell Viability Assay (Promega, Madison, WI) in 96-well tissue culture plates. Cell viability was determined after 96 h incubation with different concentrations of conjugates at 37° C. and 5% CO2. Data analysis was performed with GraphPad Prism 7 (GraphPad Software, Inc, La Jolla, CA) software to plot curve fits and perform statistical analyses. Nonlinear variable slope curve-fits were plotted as log[ADC] vs. Response and EC50 values were generated.
Raji is a cell line derived from Burkitt's lymphoma.

[5] = test system: LNCap prostate carcinoma cells (s.c. xenograft); assay: LnCap xenograft model, tumor volume; assay type: in vivo, CB17 SCID mice; settings: conjugated to anti-PSMA antibody h3/F11 D265C; LnCap xenografts; single intravenous dose
Description: as §5, with “LnCap” for “Jimt-1”, “Male CB17 SCID” for “Female NMRI nude”, “2.5×10^6 LNCap prostate carcinoma” for “5×10^6 Jimt-1 breast cancer”, “˜150” for “˜120”, “anti-PSMA” for “anti-Her2”
as §6

[6] = test system: LNCaP cells; assay: Cell viability assay (BrdU incorporation), LNCaP; assay type: cell-based; settings: conjugated to anti-PSMA antibody h3/F11 D265C
Description: (§7) Cytotoxic activity of anti PSMA and anti-Her2 amatoxin conjugates was evaluated in vitro with target-positive tumor cell lines and the chemiluminescent BrdU incorporation assay (Roche Diagnostics). Cell viability was determined after 96 h incubation with different concentrations of conjugates at 37° C. and 5% CO2 by measurement of fixed and permeabilized cells with an anti-BrdU-HRP antibody in a BMG Labtech Optima microplate reader. EC50 value of dose-response curve was calculated by Graphpad Prism 4.0 software.
LNCaP is a solid prostate adenocarcinoma cell line derived from a left supraclavicular lymph node metastasis.

[7] = test system: Raji Burkitt's lymphoma cells (s.c. xenograft); assay: Raji s.c. xenograft model (solid tumor), tumor volume; assay type: in vivo, CB17 SCID mice; settings: for Efficacy Raji sc: anti-CD19 conjugate, grade, key not given; for tumor shrinking activity (FIG. 7): conjugated to chiBCE19 D265C, Raji cells injected s.c., single intravenous dose
Description: as §5, with “Raji” for “Jimt-1”, “CB17 SCID” for “NMRI nude”, “2.5×10^6 Raji Burkitt's lymphoma” for “5×10^6 Jimt-1 breast cancer”, “˜80” for “˜120”, “anti-CD19” for “anti-Her2”
as §6
Growth inhibition experiments were then carried out with tumor xenografts of Raji cells injected into mice s.c. This approach leads to tumors that mimic the phenotype of a solid tumor.

[8] = test system: JIMT-1 cells; assay: Cell viability assay (BrdU incorporation), JIMT-1; assay type: cell-based; settings: conjugated to Trastuzumab D265C
Description: as §7
JIMT-1 is a solid cancer cell line derived from a breast ductal adenocarcinoma.

[9] = test system: Nalm-6 cells (i.v. xenograft); assay: Intravenous Nalm-6 xenograft model (liquid tumor), survival; assay type: in vivo, CB17 SCID mice; settings: conjugated to chiBCE19 D265C; i.v. injected NALM6 cells; single i.v. dose
Description: as §1
as §1, with “[…]” for “Nalm-6”, “5×10^6 Nalm-6 B Cell precursor leukemia” for “2.5×10^6 Raji Burkitt's lymphoma”
as §2, §3, §4

[10] = biological target: RNA polymerase III (Homo sapiens, UniProt O14802+Q9NW08); settings: cited from earlier work
[11] = biological target: RNA polymerase I (Homo sapiens, UniProt O95602+Q9H9Y6); settings: cited from earlier work

| Molecule | potency in survival experiment (FIG. 6A) [1] | tumor shrinking activity (FIG. 2) [2] | HNSTD DIG Cyno [3] [mg/kg] | potency in cell viability assay (FIG. 5) [4] | tumor shrinking activity (FIG. 4) [5] | potency in cell viability assay (FIG. 3) [6] | Efficacy Raji sc [7] | tumor shrinking activity (FIG. 7) [7] | potency in cell viability assay (FIG. 1) [8] | potency in survival experiment (FIG. 6B) [9] | binding to RNA polymerase III [10] | binding to RNA polymerase I [11] |
| --- | --- | --- | --- | --- | --- | --- | --- | --- | --- | --- | --- | --- |
| CC[C@H](C)[C@@H]1NC(=O)CNC(=O)[C@@H]2Cc3c([nH]c4cc(OCc5ccc(NC(=O)[C@H](C)NC(=O)[C@@H](NC(=O)CCN6C(=O)C=CC6=O)C(C)C)cc5)ccc34)[S@+]([O-])CC(NC(=O)CNC1=O)C(=O)N[C@@H](CC(N)=O)C(=O)CN1CC(O)C[C@H]1C(=O)N[C@@H]([C@@H](C)[C@@H](O)CO)C(=O)N2 (stereo partly shown) [30.1699] | lower potency than the Trp variant 30.2115 | strong tumor shrinking activity | >3 | comparable potency | strong tumor shrinking activity | comparable potency | ∘ | strong tumor shrinking activity | comparable potency | lower potency than the Trp variant 30.2115 | – | – |
| CC[C@H](C)[C@@H]1NC(=O)CNC(=O)[C@@H]2Cc3c([nH]c4cc(O)ccc34)[S@+]([O-])CC(NC(=O)CNC1=O)C(=O)N[C@@H](CC(=O)NCc1ccc(NC(=O)[C@H](C)NC(=O)C(NC(=O)CCN3C(=O)C=CC3=O)C(C)C)cc1)C(=O)CN1CC(O)C[C@H]1C(=O)N[C@@H]([C@@H](C)[C@@H](O)CO)C(=O)N2 (stereo partly shown) [30.2060] | – | strong tumor shrinking activity | <7.5 | comparable potency | strong tumor shrinking activity | comparable potency | ∘ | strong tumor shrinking activity | comparable potency | – | – | – |
| CC[C@H](C)[C@@H]1NC(=O)CNC(=O)[C@@H]2Cc3c([nH]c4ccccc34)SCC(NC(=O)CNC1=O)C(=O)N[C@@H](CC(=O)NCc1ccc(NC(=O)[C@H](C)NC(=O)C(NC(=O)CCN3C(=O)C=CC3=O)C(C)C)cc1)C(=O)CN1CC(O)C[C@H]1C(=O)N[C@@H]([C@@H](C)[C@@H](O)CO)C(=O)N2 (stereo partly shown) [30.2115, reference compound] | – | significantly decreased tumor shrinking activity | <7.5 | comparable potency | significantly decreased tumor shrinking activity | strongly decreased potency | – | significantly decreased tumor shrinking activity | slightly decreased potency | – | – | – |
| CC[C@H](C)[C@@H]1NC(=O)CNC(=O)[C@@H]2Cc3c([nH]c4ccccc34)[S+]([O-])CC(NC(=O)CNC1=O)C(=O)N[C@@H](CC(=O)NCc1ccc(NC(=O)[C@H](C)NC(=O)[C@@H](NC(=O)CCN3C(=O)C=CC3=O)C(C)C)cc1)C(=O)CN1CC(O)C[C@H]1C(=O)N[C@@H]([C@@H](C)[C@@H](O)CO)C(=O)N2 (stereo partly shown) [30.2183, reference compound] | – | significantly decreased tumor shrinking activity | – | comparable potency | significantly decreased tumor shrinking activity | strongly decreased potency | – | significantly decreased tumor shrinking activity | strongly decreased potency | – | – | – |
| CC[C@H](C)[C@@H]1NC(=O)CNC(=O)[C@@H]2Cc3c([nH]c4cc(O)ccc34)SCC(NC(=O)CNC1=O)C(=O)N[C@@H](CC(=O)NCc1ccc(NC(=O)[C@H](C)NC(=O)C(NC(=O)CCN3C(=O)C=CC3=O)C(C)C)cc1)C(=O)CN1CC(O)C[C@H]1C(=O)N[C@@H]([C@@H](C)[C@@H](O)CO)C(=O)N2 (stereo partly shown) [30.2347] | – | strong tumor shrinking activity | <5 | comparable potency | strong tumor shrinking activity | comparable potency | ∘ | strong tumor shrinking activity | comparable potency | – | – | – |
| CC[C@H](C)[C@@H]1NC(=O)CNC(=O)[C@@H]2Cc3c([nH]c4cc(OCc5ccc(NC(=O)[C@H](C)NC(=O)[C@@H](NC(=O)CCN6C(=O)C=CC6=O)C(C)C)cc5)ccc34)SCC(NC(=O)CNC1=O)C(=O)N[C@@H](CC(N)=O)C(=O)CN1CC(O)C[C@H]1C(=O)N[C@@H]([C@@H](C)[C@@H](O)CO)C(=O)N2 (stereo partly shown) [30.2371] | – | strong tumor shrinking activity | >2 | comparable potency | strong tumor shrinking activity | comparable potency | ∘ | strong tumor shrinking activity | comparable potency | – | – | – |
| α-amanitin [Alpha-amanitin] | – | – | – | – | – | – | – | – | – | – | only slightly binds | no binding |
